Results published in patent US11312722B2, “Hsp90 inhibitors and uses thereof” (TRUSTEES OF BOSTON UNIVERSITY, priority 2019, dated 2022).
Values after ≈ are worked out from the molar mass of the structure shown. Where two headings read alike, the source gives them in different places.

Key:
[1] = target: Hsp90 (C. albicans whole cell lysate) (Candida albicans (strain SC5314 / ATCC MYA-2876) (Yeast), UniProt P46598); assay: biochemical; format: binding; conditions: for C. alb Active (biochemical): Yes/No call
In short: (§1)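 In this fluorescence polarization competition assay, compound titrations in buffer with 0.1 mg/mL bovine gamma globulin were mixed with fungal whole-cell lysate spiked with 0.1 nM Cy3-geldanamycin probe. Plates were incubated 4.5 h at room temperature. EC50 came from 4-parameter fits of probe displacement, normalized to GdA in the same lysate.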

C. neoformans Hsp90 NBD [2] = target: T1, C. neoformans Hsp90 NBD (Cryptococcus neoformans, UniProt J9VVA4); assay: biochemical; format: binding; conditions: SPR, 25° C., read-out: Biacore KD
T1 sequence (J9VVA4 1-699): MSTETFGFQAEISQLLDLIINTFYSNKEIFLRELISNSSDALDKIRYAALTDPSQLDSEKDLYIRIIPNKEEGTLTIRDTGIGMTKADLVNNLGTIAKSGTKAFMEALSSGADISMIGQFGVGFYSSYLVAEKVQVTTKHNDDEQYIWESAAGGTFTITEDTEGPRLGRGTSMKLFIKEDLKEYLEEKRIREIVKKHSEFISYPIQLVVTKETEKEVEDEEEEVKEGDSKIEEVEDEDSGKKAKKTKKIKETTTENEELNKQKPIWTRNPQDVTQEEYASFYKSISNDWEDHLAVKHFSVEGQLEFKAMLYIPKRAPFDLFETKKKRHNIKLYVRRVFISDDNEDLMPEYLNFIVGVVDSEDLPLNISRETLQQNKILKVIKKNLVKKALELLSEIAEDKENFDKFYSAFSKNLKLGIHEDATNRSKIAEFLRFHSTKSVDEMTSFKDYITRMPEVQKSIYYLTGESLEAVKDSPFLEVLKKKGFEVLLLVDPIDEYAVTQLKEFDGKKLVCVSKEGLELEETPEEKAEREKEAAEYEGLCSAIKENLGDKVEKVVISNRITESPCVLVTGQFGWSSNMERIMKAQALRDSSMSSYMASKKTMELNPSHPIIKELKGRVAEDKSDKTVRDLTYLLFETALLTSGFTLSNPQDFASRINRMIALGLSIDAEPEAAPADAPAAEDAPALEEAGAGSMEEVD
Description: SPR assays. For SPR experiments, Hsp90 NBD expression constructs were modified to encode a C-terminal AviTag™ for site-specific on-column biotinylation with a BirA biotin-ligase kit (Avidity LLC; BirA-500). SPR experiments were performed on a Biacore T200 instrument at 25° C. Biotinylated Hsp90 NBD was diluted to 40 μg/mL and immobilized on a streptavidin chip (Sensor Chip SA, GE Healthcare) at a density of 2000-2500 response units (RU) on the biosensor surface. […] Resulting sensorgrams were analyzed with a fit to a 1:1 binding model, using BIA evaluation software.

[3] = system: C. neoformans (Strain H99); assay: Antifungal sensitivity testing (MIC), C. neoformans H99; format: cell-based
in vitro = conditions: both, CD-1, mouse; for CLint scaled at 1 μM: liver microsomes; for half-life: microsomes
[4] = mouse liver microsomes; for % remaining at 15 min (NADPH-free): NADPH-free control; for % remaining at 15 min / % remaining at 60 min: with NADPH
[5] = system: Hsp90 (C. albicans whole cell lysate); assay: biochemical; format: binding
In short: as §1

[6] = target: Hsp90 (C. neoformans whole cell lysate) (Cryptococcus neoformans, UniProt J9VVA4); format: binding; conditions: read-out: C. neo EC50
Sequence of Hsp90 (C. neoformans whole cell lysate) (J9VVA4 1-699): as above
Description: All analogs were assessed for Hsp90 binding affinity using a fluorescence polarization (FP)-based equilibrium competition assay in fungal and human whole cell lysates. […] Using lysates, the relative potency and selectivity for fungal Hsp90 was measured versus the entire ensemble of human Hsp90 isoforms in microplate format using small amounts of test materials. […] Thermal shift assays were performed under saturating ligand conditions, i.e. equimolar concentrations (10 μM) of protein and ligand. As a result, they provided qualitative evidence of target binding, but not a quantitative measurement of ligand affinity. For quantitation, a ligand dissociation constant (Ki) for key compounds was also determined using purified NBDs in FP assays and KD measurements were made by surface plasmon resonance (SPR) using a Biacore instrument. Finally, all analogs were assessed for whole cell antifungal activity against the pathogens C. albicans and C. neoformans.
FP assays. Whole cell lysates were prepared for FP assays as described previously. Total protein concentration of human and yeast lysates was determined by Bradford assay. […] Serial dilutions of test Hsp90 inhibitors were then assayed under these same conditions to monitor loss of fluorescence polarization as an indicator of probe displacement from Hsp90. […] Titrations of test compound in 25 μL of binding buffer (supplemented with 0.1 mg/mL bovine gamma globulin), were mixed with an equal volume of freshly prepared whole-cell lysate spiked with Cy3-GdA (0.1 nM). Plates were incubated at room temperature for 4.5 h to achieve equilibrium binding for the geldanamycin-based probe. […] Non-linear 4-parameter curve fitting of raw displacement data was performed in GraphPad Prism 5.0 to determine EC50 values as a measure of relative Hsp90-binding affinity. Results were normalized to the value determined for GdA in lysate of each cell type.
Statistical methods. […] In calculating the error of selectivity determinations, the fractional error of measurements in each species was summed to yield a composite error for the derived ratio.

C. neoformans Hsp90 NBD [7] = target: T1, C. neoformans Hsp90 NBD; assay: FP assay with purified C. neoformans Hsp90 NBD (Ki); format: binding; conditions: C. neo FS calculated using Ki
Description: Thermal shift assays were performed under saturating ligand conditions, i.e. equimolar concentrations (10 μM) of protein and ligand. As a result, they can provide only qualitative evidence of target binding, but not a quantitative measurement of ligand affinity. […] Titrations of the Cy3-GdA probe and purified proteins were evaluated to define assay conditions and to determine the dissociation constant Kd of the probe for each NBD. Serial dilutions of test Hsp90 inhibitors were then assayed in triplicate wells under these conditions. Non-linear 4-parameter curve fitting of raw displacement data was performed in GraphPad Prism 5.0 to determine IC50 values. Finally, inhibitory constants (Ki) were calculated as described previously.
NBD expression and purification. Recombinant Hsp90 NBDs were expressed and purified as previously described. Stock protein solutions in 50% glycerol were stored at −20° C. until dilution into relevant buffers and use for FP and thermal shift assays.

C. neoformans Hsp90 NBD [8] = target: T1, C. neoformans Hsp90 NBD; assay: Protein thermal shift assay, C. neoformans Hsp90 NBD; format: binding; conditions: equimolar protein and ligand (10 μM)
Description: […]. Using recombinant proteins, assay-independent nanomolar inhibitory constants (Ki) were defined for these compounds. Binding of the compounds to their relevant NBD by thermal shift denaturation assays was also confirmed. Thermal shift assays were performed under saturating ligand conditions, i.e. equimolar concentrations (10 μM) of protein and ligand. As a result, they can provide only qualitative evidence of target binding, but not a quantitative measurement of ligand affinity. […] […]. C. neoformans or C. albicans Hsp90 NBD was combined with equimolar concentrations of the indicated bioactive inhibitors (10 μM) or DMSO control, in technical triplicates. The protein was heated from 25 to 98.6° C. at 0.2° C./5 s in the presence of Sypro Orange dye. All compounds induce an increase in melting temperature relative to the DMSO control, reported as ΔTm.
Protein thermal shift assays. Thermal melting curves were determined using a Protein Thermal Shift Kit (ThermoFisher #4462263), employing a CFX384 Real-Time PCR System (Bio-Rad, C1000 Touch Thermal Cycler). Reactions were performed in a final volume of 10 μL, and contained purified C. albicans or C. neoformans Hsp90 NBD diluted to 250 μg/mL in Buffer HBS-P (GE Healthcare Life Sciences, 0.01 M HEPES pH 7.4, 0.15 M NaCl, 0.005% v/v Surfactant P20) with 10 μM synthetic analog or DMSO control, and 1× Sypro Orange dye solution. Samples were prepared in triplicate in 384-well white plates (Bio-Rad; HSP3805). The instrument was set to melt curve, step 1 (25° C., 2 min) and step 2 (ramp to 98.6° C., increasing 0.2° C. per 5 s cycle). The inflection point of each curve is defined as the protein melting temperature (Tm). Temperature shift, ΔTm, was recorded as the difference between the Tm of the fungal Hsp90 NBD with compound minus Tm of the protein without compound.

[9] = Cryptococcus neoformans, read-out: C. neo MIC80
[10] = Cryptococcus neoformans, read-out: C. neo MIC90
[11] = Cryptococcus neoformans; read-out: C. neo MIC80
[12] = Cryptococcus neoformans; read-out: C. neo MIC90

| SMILES | C. alb Active (biochemical) [1] | Kd (C. neoformans Hsp90 NBD [2]) | MIC80 [3, 9] | MIC90 [3, 10] | CLint scaled at 1 μM (in vitro) | % remaining at 15 min (NADPH-free) [4] | % remaining at 15 min [4] | % remaining at 60 min [4] | C. neoformans NBD ΔTm (C. neoformans Hsp90 NBD [8]) | other results |
| --- | --- | --- | --- | --- | --- | --- | --- | --- | --- | --- |
| COc1cccc(-c2cc(Nc3cc(O)cc(O)c3C(=O)N3Cc4cccnc4C3)n(C)n2)c1 [Compound 113, 5-((3-(3-Methoxyphenyl)-1-methyl-1H-pyrazol-5-yl)amino)-4-(5H,6H,7H-pyrrolo[3,4-b]pyridine-6-carbonyl)benzene-1,3-diol] | Yes | 67 nM | > 25 µM | > 25 µM | 1590 mL/min/kg | 109.2% | 4.9% | 0% |  | half-life (in vitro): 3.4 min |
| COc1ccccc1-c1cc(Nc2cc(O)cc(O)c2C(=O)N2CC[C@H](OC)C2)n(C)n1 [ACSM01351] | Yes |  |  |  |  |  |  |  |  | C. alb Selectivity (FS) [5]: 4.6; C. alb Selective ([5]; Yes/No call): No; EC50 ([1]; read-out: C. alb EC50): 628 nM; EC50 [6]: 244 nM; C. neo Selectivity (FS) (C. neoformans Hsp90 NBD [7]): 98; C. neo MIC80 [3]: >25 µM; C. neo MIC90 [3]: >25 µM |
| COc1ccc(Cn2nc(-c3ccccc3)cc2Nc2cc(O)cc(O)c2C(=O)N2Cc3ccc(F)cc3C2)cc1 [Compound 29, 4-(5-Fluoro-2,3-dihydro-1H-isoindole-2-carbonyl)-5-((1-((4-methoxyphenyl)methyl)-3-phenyl-1H-pyrazol-5-yl)amino)benzene-1,3-diol] |  |  |  |  |  |  |  |  | 14 °C |  |
| COc1cccc(-c2cc(Nc3cc(O)cc(O)c3C(=O)N3Cc4cn[nH]c4C3)n(C)n2)c1 [Compound 114, 5-((3-(3-Methoxyphenyl)-1-methyl-1H-pyrazol-5-yl)amino)-4-(1H,4H,5H,6H-pyrrolo[3,4-c]pyrazole-5-carbonyl)benzene-1,3-diol] | Yes | 22 nM | > 25 µM | > 25 µM | 318 mL/min/kg | 108.2% | 40.1% | 7.0% |  |  |
| Cn1nc(-c2ccc(OC(F)(F)F)cc2)cc1Nc1cc(O)cc(O)c1C(=O)N1Cc2cccnc2C1 [Compound 131, 5-((1-Methyl-3-(4-(trifluoromethoxy)phenyl)-1H-pyrazol-5-yl)amino)-4-(5H,6H,7H-pyrrolo[3,4-b]pyridine-6-carbonyl)benzene-1,3-diol] |  | 380 nM | > 25 µM | > 25 µM | 387 mL/min/kg | 104.1% | 35.5% | 3.9% |  | C. neo Active (cells) ([3]; Yes/No call): No |
| Cn1nc(-c2ccccc2)cc1Nc1cc(O)cc(O)c1C(=O)N1Cc2ccccc2C1 [Compound 91, 4-(2,3-Dihydro-1H-isoindole-2-carbonyl)-5-((1-methyl-3-phenyl-1H-pyrazol-5-yl)amino]benzene-1,3-diol] | Yes |  |  |  |  |  |  |  | 11 °C | MIC80 [3, 11]: > 25 µM; MIC90 [3, 12]: > 25 µM |
| Cn1nc(-c2ccc(C(C)(C)C)cc2)cc1Nc1cc(O)cc(O)c1C(=O)N1Cc2ccccc2C1 [Compound 127, 5-((3-(4-tert-Butylphenyl)-1-methyl-1H-pyrazol-5-yl)amino)-4-(2,3-dihydro-1H-isoindole-2-carbonyl)benzene-1,3-diol] |  |  |  |  |  |  |  |  | 0 °C |  |
| Cc1ccccc1-c1cc(Nc2cc(O)cc(O)c2C(=O)N2Cc3ccccc3C2)n(C)n1 [Compound 106, 4-(2,3-Dihydro-1H-isoindole-2-carbonyl)-5-((1-methyl-3-(2-methylphenyl)-1H-pyrazol-5-yl)amino)benzene-1,3-diol] | Yes |  |  |  |  |  |  |  | 12 °C | MIC ([3]; Cryptococcus neoformans; C. neoformans H99, RPMI medium, 37° C., 48 h, resazurin): < 10 µM; MIC80 [3, 11]: < 25 µM; MIC90 [3, 12]: 25 µM (≈ 11 µg/mL) |
| Cn1nc(-c2ccc(OC(F)(F)F)cc2)cc1Nc1cc(O)cc(O)c1C(=O)N1Cc2cn[nH]c2C1 [Compound 132, 5-((1-Methyl-3-(4-(trifluoromethoxy)phenyl)-1H-pyrazol-5-yl)amino)-4-(1H,4H,5H,6H-pyrrolo[3,4-c]pyrazole-5-carbonyl)benzene-1,3-diol] |  | 214 nM | > 25 µM | > 25 µM | 176 mL/min/kg | 71.7% | 63.0% | 20.6% |  | C. neo Active (cells) ([3]; Yes/No call): No |
| COc1cccc(-c2cc(Nc3cc(O)cc(O)c3C(=O)N3Cc4ccccc4C3)n(C)n2)c1 [Compound 112, 4-(2,3-Dihydro-1H-isoindole-2-carbonyl)-5-((3-(3-methoxyphenyl)-1-methyl-1H-pyrazol-5-yl)amino)benzene-1,3-diol] | Yes | 74 nM | > 25 µM | > 25 µM | 1740 mL/min/kg | 99.3% | 3.7% | 0% |  | half-life (in vitro): 3.2 min |
